Measurements taken from ChEMBL document CHEMBL1127546, “New thiol inhibitors of neutral endopeptidase EC 3.4.24.11: synthesis and enzyme active-site recognition” (J Med Chem, 1994).

Tests used:
Neprilysin [1] = target: T1, Neprilysin (Oryctolagus cuniculus, UniProt P08049); test: Tested for binding affinity against neutral endopeptidase (NEP)
T1 sequence (P08049 whole entry): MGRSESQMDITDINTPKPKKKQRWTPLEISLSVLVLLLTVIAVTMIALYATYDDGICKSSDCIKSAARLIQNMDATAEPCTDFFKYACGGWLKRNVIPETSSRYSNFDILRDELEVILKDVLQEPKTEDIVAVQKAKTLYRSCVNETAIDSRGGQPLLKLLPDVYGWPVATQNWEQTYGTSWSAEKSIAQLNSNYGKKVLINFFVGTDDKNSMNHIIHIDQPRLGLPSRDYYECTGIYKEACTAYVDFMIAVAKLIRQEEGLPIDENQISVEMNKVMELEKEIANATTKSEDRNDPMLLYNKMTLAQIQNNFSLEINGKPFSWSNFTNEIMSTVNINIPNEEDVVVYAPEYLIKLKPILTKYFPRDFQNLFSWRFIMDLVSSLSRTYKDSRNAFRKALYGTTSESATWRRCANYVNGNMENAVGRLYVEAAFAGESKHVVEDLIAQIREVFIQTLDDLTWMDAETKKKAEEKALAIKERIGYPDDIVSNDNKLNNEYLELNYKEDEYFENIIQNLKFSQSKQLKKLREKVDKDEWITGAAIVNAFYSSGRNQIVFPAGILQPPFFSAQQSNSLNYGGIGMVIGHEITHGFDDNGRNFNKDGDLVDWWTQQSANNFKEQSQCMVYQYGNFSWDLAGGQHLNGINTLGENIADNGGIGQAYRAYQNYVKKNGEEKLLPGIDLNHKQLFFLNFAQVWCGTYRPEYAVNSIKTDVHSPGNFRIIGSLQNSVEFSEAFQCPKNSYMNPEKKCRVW

Neprilysin [2] = target: T1, Neprilysin; test: Tested for inhibitory potency against neutral endopeptidase (NEP)
[3] = target: T2, Angiotensin-converting enzyme (Homo sapiens, UniProt P12821); test: Tested for inhibitory potency against Angiotensin I converting enzyme
T2 sequence (P12821 whole entry): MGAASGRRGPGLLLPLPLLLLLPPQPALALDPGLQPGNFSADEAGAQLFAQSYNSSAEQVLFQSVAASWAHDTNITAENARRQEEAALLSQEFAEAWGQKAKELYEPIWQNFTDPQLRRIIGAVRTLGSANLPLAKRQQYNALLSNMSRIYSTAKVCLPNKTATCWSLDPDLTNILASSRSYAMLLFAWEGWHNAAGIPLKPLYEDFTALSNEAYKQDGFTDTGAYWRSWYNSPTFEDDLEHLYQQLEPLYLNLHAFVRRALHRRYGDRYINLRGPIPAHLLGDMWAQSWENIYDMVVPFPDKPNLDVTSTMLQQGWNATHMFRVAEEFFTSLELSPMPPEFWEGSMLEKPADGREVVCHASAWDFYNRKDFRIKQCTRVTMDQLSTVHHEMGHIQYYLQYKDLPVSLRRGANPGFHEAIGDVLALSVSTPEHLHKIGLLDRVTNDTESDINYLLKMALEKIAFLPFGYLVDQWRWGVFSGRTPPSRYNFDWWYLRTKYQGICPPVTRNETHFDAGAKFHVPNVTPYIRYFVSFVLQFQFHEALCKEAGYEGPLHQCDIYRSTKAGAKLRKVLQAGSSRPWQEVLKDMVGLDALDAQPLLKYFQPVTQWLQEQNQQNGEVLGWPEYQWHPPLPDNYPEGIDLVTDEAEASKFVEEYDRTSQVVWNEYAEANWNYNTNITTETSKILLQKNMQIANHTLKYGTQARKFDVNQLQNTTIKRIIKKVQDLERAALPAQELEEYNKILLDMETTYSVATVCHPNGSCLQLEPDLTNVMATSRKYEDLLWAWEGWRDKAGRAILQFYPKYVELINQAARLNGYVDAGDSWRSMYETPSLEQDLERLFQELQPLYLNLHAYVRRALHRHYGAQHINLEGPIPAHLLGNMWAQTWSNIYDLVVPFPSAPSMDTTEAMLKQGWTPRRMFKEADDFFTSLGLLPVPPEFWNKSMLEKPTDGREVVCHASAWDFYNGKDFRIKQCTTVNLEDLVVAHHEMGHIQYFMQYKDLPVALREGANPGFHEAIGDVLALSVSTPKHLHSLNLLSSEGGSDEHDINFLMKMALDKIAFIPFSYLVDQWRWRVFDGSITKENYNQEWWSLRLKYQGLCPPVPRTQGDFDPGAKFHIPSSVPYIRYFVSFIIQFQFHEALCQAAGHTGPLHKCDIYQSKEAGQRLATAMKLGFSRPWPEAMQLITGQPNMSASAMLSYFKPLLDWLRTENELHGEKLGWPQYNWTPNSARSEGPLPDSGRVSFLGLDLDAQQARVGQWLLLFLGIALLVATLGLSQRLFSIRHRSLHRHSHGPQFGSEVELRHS

[4] = target: T2, Angiotensin-converting enzyme; test: Tested for inhibitory potency against Angiotensin I Converting Enzyme
Thermolysin = target: T3, Thermolysin (Bacillus thermoproteolyticus, UniProt P00800); test: Tested for binding affinity against Thermolysin; set-up: species or system Bacteria
T3 sequence (P00800 whole entry): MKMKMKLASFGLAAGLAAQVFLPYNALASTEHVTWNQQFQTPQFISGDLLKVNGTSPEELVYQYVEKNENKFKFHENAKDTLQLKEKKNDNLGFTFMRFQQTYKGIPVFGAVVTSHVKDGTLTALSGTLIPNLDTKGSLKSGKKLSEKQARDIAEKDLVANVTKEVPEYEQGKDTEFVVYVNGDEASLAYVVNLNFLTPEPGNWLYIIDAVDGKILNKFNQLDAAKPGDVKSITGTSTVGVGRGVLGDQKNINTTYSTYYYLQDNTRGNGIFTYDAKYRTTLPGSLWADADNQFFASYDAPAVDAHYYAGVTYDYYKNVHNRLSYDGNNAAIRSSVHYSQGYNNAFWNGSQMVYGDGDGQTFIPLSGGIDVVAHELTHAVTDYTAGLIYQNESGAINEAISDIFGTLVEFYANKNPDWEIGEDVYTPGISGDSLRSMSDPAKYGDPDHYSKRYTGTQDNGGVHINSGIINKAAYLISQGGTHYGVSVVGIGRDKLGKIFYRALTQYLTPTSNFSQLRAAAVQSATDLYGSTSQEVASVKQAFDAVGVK

Compound	IC50 (Neprilysin [2]) [nM]	IC50 [4] [nM]	other results
O=C(O)C(CCc1ccccc1)N[C@@H](Cc1ccccc1)C(=O)NC[C@H](O)C(=O)O (stereo partly specified)			Ki (Neprilysin [1]): 11 nM
CC(NC(=O)C(Cc1ccccc1)CC(S)Cc1ccccc1)C(=O)O (stereo unspecified)	190		IC50 [3]: 3800 nM
O=C(NC(Cc1ccc(O)cc1)C(=O)O)C(Cc1ccccc1)CC(S)Cc1ccccc1 (stereo unspecified)	150	2400	
CC(C)C[C@H](NC(CCc1ccccc1)C(=O)O)C(=O)N[C@@H](Cc1c[nH]c2ccccc12)C(=O)O (stereo partly specified)			Ki (Thermolysin): 50 nM
O=C(O)CCNC(=O)C(Cc1ccccc1)CC(Cc1ccccc1)C(=O)O (stereo unspecified)	18		
CCC(C)C(CC(S)Cc1ccccc1)C(=O)O (stereo unspecified)	250	4000	
CCC(C)C(S)CC(C(=O)NC(Cc1ccc(O)cc1)C(N)=O)C(C)CC (stereo unspecified)	360	4000	
CCC(C)C(S)CC(C(=O)NC(Cc1ccc(O)cc1)C(=O)O)C(C)CC (stereo unspecified)	380	3400	
O=C(O)C1CCCN1C(=O)C(Cc1ccccc1)CC(S)Cc1ccccc1 (stereo unspecified)	320	3600	
O=C(O)CCNC(=O)C(Cc1ccccc1)CC(S)Cc1ccccc1 (stereo unspecified)	290	3500	
CCC(C)C(S)CC(Cc1ccccc1)C(=O)NC(Cc1ccc(O)cc1)C(N)=O (stereo unspecified)	350	3500	
CCC(C)C(CC(S)CCc1ccccc1)C(=O)NC(Cc1ccc(O)cc1)C(=O)O (stereo unspecified)	260	2900	
CC(NC(=O)C(Cc1ccccc1)CC(S)c1ccccc1)C(=O)O (stereo unspecified)	130	3500	
CCC(C)C1CC(Cc2ccccc2)SC1=O (stereo unspecified)	220	2300	
CC(C)CC(S)C(Cc1ccccc1)C(=O)NC(C)C(=O)O (stereo unspecified)	3.6		IC50 (Thermolysin): 4000 nM
CCC(C)C(S)CC(Cc1ccccc1)C(=O)N[C@H](Cc1ccc(O)cc1)C(=O)O (stereo partly specified)	320	8000	
CCC(C)C(CC(S)Cc1ccccc1)C(=O)NC(Cc1ccc(O)cc1)C(=O)O (stereo unspecified)	220	800	
CCC(C)C(CC(S)Cc1ccccc1)C(=O)N1CCCC1C(=O)O (stereo unspecified)	350	2800	
CCC(C)C(S)CC(Cc1ccccc1)C(=O)N[C@@H](Cc1ccc(O)cc1)C(=O)O (stereo partly specified)	270	4400	
O=C(O)CNC(=O)[C@@H](CS)Cc1ccccc1 [THIORPHAN]			IC50 (Thermolysin): 1800 nM
